Laboratory results: patent US20170007727A1, “METHODS OF IMAGING WITH Ga-68 LABELED MOLECULES” (Immunomedics, Inc., priority 2015, published 2017)
Each block holds one compound with its values, some of them ahead of it. Numbered stars: 1 amine (or outer) side, 2 acyl side, 3 side chain; on linkers, the order of the positions; unused ones are H or OH. Square brackets hold non-standard residues; d marks the D form. Side chains are listed from the residue outwards. Peptide text beside a SMILES is read from it. * marks the point of attachment. DOTA = O=C(O)CN1CCN(CC(=O)O)CCN(CC(=O)*)CCN(CC(=O)O)CC1; NH(2-(imidazol-4-yl)ethyl) = c1ncc(CCN*)[nH]1; Suc = O=C(CCC(=O)[*:2])[*:1]

Tests used:
AR42J tumors = assay: Biodistribution in mice with s.c. AR42J tumors; type: in vivo, nude BALB/c mice; details: 2 h p.i.
Experimental: Male nude BALB/c mice (6-8 weeks) were injected subcutaneously in the right flank with 0.2 mL AR42J cell suspension of 10^7 cells/mL. Approximately two weeks after tumor cell inoculation when tumors were 5-8 mm in diameter, 370 kBq ^18F- or ^68Ga-labeled IMP 466 was administered intravenously (n=5). Separate groups (n=5) were injected with a 1,000-fold molar excess of unlabeled IMP 466. One group of three mice was injected with unchelated [Al^18F]. All mice were killed by CO2/O2 asphyxiation 2 h post-injection (p.i.). Organs of interest were collected, weighed and counted in a gamma counter. The percentage of the injected dose per gram tissue (% ID/g) was calculated for each tissue. The animal experiments were approved by the local animal welfare committee and performed according to national regulations.

[1] = test system: CEA-expressing LS174T tumors; details: mouse, in vivo
Experimental: One or two hours after the injection of the radiolabeled peptide, PET/CT images were acquired and the biodistribution of the radiolabeled peptide was determined. Uptake in the LS174T tumor was compared with that in an s.c. CEA-negative SK-RC 52 tumor.
Experiments were performed in male nude BALB/c mice (6-8 weeks old), weighing 20-25 grams. Mice received a subcutaneous injection with 0.2 mL of a suspension of 1×10^6 LS174T-cells, a CEA-expressing human colon carcinoma cell line (American Type Culture Collection, Rockville, Md., USA).
The percentage-injected dose per gram tissue (% ID/g) was calculated.
LS174T tumors were pretargeted by injecting 1.0, 2.5, 5.0 or 10.0 nmol TF2 (160, 400, 800 or 1600 μg).
In the right flank an s.c. LS174T tumor was induced, while at the same time in the same mice 1×10^6 SK-RC 52 cells were inoculated in the left flank to induce a CEA-negative tumor.
Mice were fasted during 10 hours prior to the injection and anaesthetized and kept warm at 37° C. until euthanasia, 1 h postinjection.

[2] = target: somatostatin receptors on AR42J cells (rat); assay: apparent IC50, competitive binding on AR42J cells against 111In(DTPA-octreotide), RT 3 h
[3] = Stability of ^18F-labeled IMP 466 in human serum (RP-HPLC); type: in vitro ADME; details: 37° C., 4 h
Experimental: Ten μL of the ^18F-labeled IMP 466 was incubated in 500 μL of freshly collected human serum and incubated for 4 h at 37° C. Acetonitrile was added and the mixture was vortexed followed by centrifugation at 1000×g for 5 min to precipitate serum proteins. The supernatant was analyzed on RP-HPLC as described above.

[4] = complexed with ^177Lu or ^205/206Bi; cited from earlier work
RIIα dimers = RIIα dimers (Homo sapiens, UniProt P13861); details: read-out: affinity for RIIα dimers; cited from earlier work
Sequence of RIIα dimers (P13861 whole entry): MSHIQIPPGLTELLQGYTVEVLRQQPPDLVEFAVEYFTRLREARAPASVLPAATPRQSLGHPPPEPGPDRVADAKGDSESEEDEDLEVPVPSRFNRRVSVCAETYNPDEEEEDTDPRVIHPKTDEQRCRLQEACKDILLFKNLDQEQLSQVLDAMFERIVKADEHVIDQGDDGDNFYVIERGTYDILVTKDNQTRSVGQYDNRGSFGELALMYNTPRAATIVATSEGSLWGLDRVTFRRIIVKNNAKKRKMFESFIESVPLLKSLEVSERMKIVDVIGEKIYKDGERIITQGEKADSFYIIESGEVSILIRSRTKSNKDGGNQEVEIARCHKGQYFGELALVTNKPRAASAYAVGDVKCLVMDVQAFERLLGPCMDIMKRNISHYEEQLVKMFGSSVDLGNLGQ

Sequence of somatostatin receptors on AR42J cells (rat) (P30680 whole entry): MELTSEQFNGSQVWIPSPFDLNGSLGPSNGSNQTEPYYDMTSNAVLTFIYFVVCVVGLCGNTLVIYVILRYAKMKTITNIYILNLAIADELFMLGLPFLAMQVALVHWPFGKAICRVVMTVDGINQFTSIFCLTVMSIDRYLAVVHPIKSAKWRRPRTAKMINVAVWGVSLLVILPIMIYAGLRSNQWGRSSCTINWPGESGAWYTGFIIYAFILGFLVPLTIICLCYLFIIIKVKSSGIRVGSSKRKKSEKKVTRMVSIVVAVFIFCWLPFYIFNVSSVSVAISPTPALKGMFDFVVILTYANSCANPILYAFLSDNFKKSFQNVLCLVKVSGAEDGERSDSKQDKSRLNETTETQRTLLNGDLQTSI

Compound: Al19F(IMP 466): NOTA-D-Phe-Cys-Phe-D-Trp-Lys-Thr-Cys-Throl complexed with aluminium fluoride (19F) (peptide)
IC50 [2]: 3.6 nM

Compound: O=C(O)CN1CCN(CC(=O)O)CCN(CC(Cc2ccc([N+](=O)[O-])cc2)N(CC(=O)O)CC(=O)O)CC1 (stereo not drawn) [C-NETA]
stability in serum [4]: up to 14 days

Compound: NC(=O)[C@@H](CCCCNC(=O)CNC(=O)CCC(=O)NCCc1c[nH]cn1)NC(=O)[C@@H](CCC(=O)O)NC(=O)[C@@H](CCCCNC(=O)CNC(=O)CCC(=O)NCCc1c[nH]cn1)NC(=O)[C@@H](Cc1ccc(O)cc1)NC(=O)CN1CCN(CC(=O)O)CCN(CC(=O)O)CCN(CC(=O)O)CC1 [IMP 288, DOTA-D-Tyr-D-Lys(HSG)-D-Glu-D-Lys(HSG)-NH2] ({DOTA}-[dY][dK]([Gly-Suc-NH(2-(imidazol-4-yl)ethyl)])[dE][dK]([Gly-Suc-NH(2-(imidazol-4-yl)ethyl)])-NH2)
time to maximum accretion in the tumor [1]: ≤ 1 h

Compound: 115In(DTPA-octreotide) (peptide)
IC50 [2]: 6.3 nM

Compound: 17 residue synthetic AD, SEQ ID NO: 8 QIEYLAKQIVDNAIQQA [AKAP-IS]
Kd (RIIα dimers): 0.4 nM

Now from value to compound:

bone uptake (AR42J tumors): 36.9±5.0 % ID/g
uptake in the bone [1]: 50.9±11.4 % ID/g
Compound: [18F][Al+2] [[Al^18F]]

release of ^18F after incubation in human serum [3]: did not show release of ^18F
Compound: C[C@@H](O)[C@@H]1NC(=O)[C@H](CCCCN)NC(=O)[C@@H](Cc2c[nH]c3ccccc23)NC(=O)[C@H](Cc2ccccc2)NC(=O)[C@@H](NC(=O)[C@@H](Cc2ccccc2)NC(=O)CN2CCN(CC(=O)O)CCN(CC(=O)O)CC2)CSSC[C@@H](C(=O)N[C@H](CO)[C@@H](C)O)NC1=O [Al^18F(IMP 466)]

IC50 [2]: 13 nM
Compound: 69Ga(IMP 466): NOTA-D-Phe-Cys-Phe-D-Trp-Lys-Thr-Cys-Throl complexed with 69Ga (peptide)
